Measured values as given in patent US9980927B2, “Use of tapentadol for inhibiting and/or treating depression and anxiety” (Gruenenthal GmbH, priority 2011, dated 2018).

System: patients with inadequately managed, severe chronic low back pain with or without a neuropathic pain component
Test: Hospital Anxiety and Depression Scale (HADS) anxiety score; open-label phase IIIb trial, tapentadol prolonged release 50-250 mg bid for up to 12 weeks
Assay type: in vivo, human patients
Description: As used herein, the “anxiety score” is a value determining the degree of the […]. The scale of anxiety scores covers the range from 0 to 21, wherein the degree of the anxiety is high in case of high values and low in case of low values. In a group of tested subjects, typically the mean or mediate values of anxiety scores are determined and referred to. The mean value is the sum of all anxiety scores divided by the number of subjects. The mediate value is the middle anxiety score in the set of determined scores. Preferably, the “anxiety score” is defined as in the experimental section.
A subgroup suffering from neuropathic pain due to lumbar radiculopathy was also investigated.
This was a multicenter, multinational, open-label, effectiveness phase IIIb trial to evaluate effectiveness and safety of tapentadol prolonged release treatment in patients with inadequately managed, severe chronic low back pain with or without a neuropathic pain component. Patients taking WHO Step II analgesics discontinued those analgesics before starting study medication; patients taking Step I analgesics and/or centrally acting co-analgesics continued on the same dose. […] All patients received tapentadol prolonged release (50-250 mg bid) for up to 12 weeks (5-week titration period and a 7-week maintenance period). Tapentadol immediate release (IR) 50 mg (twice a day, hours apart) was permitted (combined total daily dose of tapentadol prolonged release and tapentadol IR, 500 mg/day). The primary efficacy endpoint was the change from Baseline to Week 6 (when tapentadol prolonged release doses were stable) in average pain intensity on the 11-point NRS-3 using the last observation carried forward (LOCF) for imputing missing scores. The painDETECT questionnaire was used to evaluate the likelihood of a neuropathic pain component of low back pain; patients were classified as painDETECT “negative,” “unclear,” or “positive.” The population of patients classified as painDETECT negative was limited to approximately 30% of the total population.
In the painDETECT positive trial population the “diagnosis of lumbar radiculopathy” was evaluated which was defined per study protocol according following criteria: • typical dermatomal pain (radiating beyond the knee towards the foot, pain evoked by stretching within distribution of the ischiadic/femoral nerve) • signs of root dysfunction: • such as sensory impairment, motor symptoms from compression of lumbar nerve root (L4, L5, S1). • and/or absent or diminished quadriceps femoris or triceps surae reflexes. • and/or quantitative sensory testing (QST) deficit and pain distribution present in the same dermatomal area.
All subjects completed Short Form-36 (SF-36) and EuroQol-5 Dimension (EQ-5D) questionnaires and the Hospital Anxiety and Depression Scale (HADS). The Patient Global Impression of Change (PGIC) and Clinical global impression of change (CGIC) were also used as secondary endpoints. For both tests, patients completed the statement, “since I began trial treatment, I would rate my overall condition as,” using 7 possible responses (“very much worse” to “very much improved”). Adverse events were recorded throughout the trial.
In the following • (i) N is the number of subjects of the specified diagnosis group, • (ii) n is the number of subjects with data available, • (iii) “Mean” is the mean score of the subjects, i.e. the sum of all scores is divided by the number of subjects, • (iv) SD is the standard deviation, • (v) “Median” is the median score of the subjects, i.e. the middle score in the set of scores, • (vi) “Range” is the range of scores of the subjects, i.e. the range defined by the lowest and the highest score of the set of scores. First, the depression scores are presented. The total number of subjects in the clinical study: N=175

[1] = Visit 8, presumed neuropathic pain component N=41
[2] = Visit 8, presumed or defined neuropathic
[3] = Visit 8, presumed or defined neuropathic pain component N=126
[4] = Visit 8, subjects with nociceptive pain N=49
[5] = Visit 9, defined neuropathic pain N=85
[6] = Visit 9, positive diagnosis of lumbar radiculopathy-neuropathic pain subset N=44
[7] = Visit 9, presumed neuropathic pain component N=41
[8] = Visit 9, presumed or defined neuropathic pain component N=126
[9] = Visit 9, subjects with nociceptive pain N=49
[10] = Visit 10, defined neuropathic pain N=85
[11] = Visit 10, positive diagnosis of lumbar radiculopathy-neuropathic pain subset N=44
[12] = Visit 10, presumed neuropathic pain component N=41
[13] = Visit 10, presumed or defined neuropathic pain component N=126
[14] = Visit 10, subjects with nociceptive pain N=49
[15] = Visit 11, defined neuropathic pain N=85
[16] = Visit 11, positive diagnosis of lumbar radiculopathy-neuropathic pain subset N=44
[17] = Visit 11, presumed neuropathic pain component N=41
[18] = Visit 11, presumed or defined neuropathic pain component N=126
[19] = Visit 11, subjects with nociceptive pain N=49
[20] = Visit 12, defined neuropathic pain N=85
[21] = Visit 12, positive diagnosis of lumbar radiculopathy-neuropathic pain subset N=44
[22] = Visit 12, presumed neuropathic pain component N=41
[23] = Visit 12, presumed or defined neuropathic
[24] = Visit 12, presumed or defined neuropathic pain component N=126
[25] = Visit 12, subjects with nociceptive pain N=49

CC[C@@H](c1cccc(O)c1)[C@@H](C)CN(C)C [tapentadol, (−)-(1R,2R)-3-(3-dimethylamino-1-ethyl-2-methyl-propyl)-phenol]
Anxiety score Median (Visit 8, positive diagnosis of lumbar radiculopathy-neuropathic pain subset N=44): 5.0 | Anxiety score Mean (SD) [1]: 4.9 (4.04) | Anxiety score Median [1]: 4.0 | Anxiety score change from baseline Mean (SD) [2]: −2.4 (3.57) | Anxiety score change from baseline Median [2]: −2.0 | Anxiety score Mean (SD) [3]: 5.7 (3.80) | Anxiety score Median [3]: 5.0 | Anxiety score Mean (SD) [4]: 5.4 (4.40) | Anxiety score Median [4]: 4.0 | Anxiety score change from baseline Mean (SD) (Visit 8, total): −1.9 (3.72) | Anxiety score change from baseline Median (Visit 8, total): −2.0 | Anxiety score Mean (SD) (Visit 8, total subjects N=175): 5.6 (3.95) | Anxiety score Median (Visit 8, total subjects N=175): 5.0 | Anxiety score Mean (SD) [5]: 6.1 (3.99) | Anxiety score Median [5]: 5.0 | Anxiety score Mean (SD) [6]: 6.2 (4.01) | Anxiety score Median [6]: 5.0 | Anxiety score Mean (SD) [7]: 6.1 (5.10) | Anxiety score Median [7]: 6.0 | Anxiety score Mean (SD) [8]: 6.1 (4.32) | Anxiety score Median [8]: 5.0 | Anxiety score Mean (SD) [9]: 4.6 (3.34) | Anxiety score Median [9]: 4.0 | Anxiety score Mean (SD) (Visit 9, total subjects N=175): 5.7 (4.10) | Anxiety score Median (Visit 9, total subjects N=175): 4.0 | Anxiety score Mean (SD) [10]: 6.1 (3.98) | Anxiety score Median [10]: 6.0 | Anxiety score Mean (SD) [11]: 6.1 (3.85) | Anxiety score Median [11]: 6.0 | Anxiety score Mean (SD) [12]: 5.5 (5.46) | Anxiety score Median [12]: 4.0 | Anxiety score Mean (SD) [13]: 5.9 (4.46) | Anxiety score Median [13]: 5.0 | Anxiety score Mean (SD) [14]: 4.7 (3.21) | Anxiety score Median [14]: 4.0 | Anxiety score Mean (SD) (Visit 10, total subjects N=175): 5.6 (4.16) | Anxiety score Median (Visit 10, total subjects N=175): 5.0 | Anxiety score Mean (SD) [15]: 5.9 (3.84) | Anxiety score Median [15]: 5.5 | Anxiety score Mean (SD) [16]: 6.3 (4.25) | Anxiety score Median [16]: 6.5 | Anxiety score Mean (SD) [17]: 5.1 (4.25) | Anxiety score Median [17]: 4.0 | Anxiety score Mean (SD) [18]: 5.6 (3.96) | Anxiety score Median [18]: 5.0 | Anxiety score Mean (SD) [19]: 4.8 (3.77) | Anxiety score Median [19]: 4.0 | Anxiety score Mean (SD) (Visit 11, total subjects N=175): 5.4 (3.91) | Anxiety score Median (Visit 11, total subjects N=175): 5.0 | Anxiety score change from baseline Mean (SD) (Visit 12): −3.1 (3.16) | Anxiety score change from baseline Median (Visit 12): −3.0 | Anxiety score change from baseline Mean (SD) (Visit 12, defined neuropathic): −2.3 (4.14) | Anxiety score change from baseline Median (Visit 12, defined neuropathic): −2.0 | Anxiety score Mean (SD) [20]: 5.7 (3.80) | Anxiety score Median [20]: 5.0 | Anxiety score change from baseline Mean (SD) (Visit 12, lumbar radiculopathy): −2.2 (4.11) | Anxiety score change from baseline Median (Visit 12, lumbar radiculopathy): −2.0 | Anxiety score change from baseline Mean (SD) (Visit 12, nociceptive): −0.8 (2.82) | Anxiety score change from baseline Median (Visit 12, nociceptive): −1.0 | Anxiety score Mean (SD) [21]: 5.7 (3.59) | Anxiety score Median [21]: 6.0 | Anxiety score Mean (SD) [22]: 4.8 (3.67) | Anxiety score Median [22]: 4.0 | Anxiety score change from baseline Mean (SD) [23]: −2.5 (3.85) | Anxiety score change from baseline Median [23]: −2.0 | Anxiety score Mean (SD) [24]: 5.4 (3.76) | Anxiety score Median [24]: 5.0 | Anxiety score Mean (SD) [25]: 4.5 (3.65) | Anxiety score Median [25]: 3.0 | Anxiety score change from baseline Mean (SD) (Visit 12, total): −2.1 (3.67) | Anxiety score change from baseline Median (Visit 12, total): −2.0 | Anxiety score Mean (SD) (Visit 12, total subjects N=175): 5.2 (3.73) | Anxiety score Median (Visit 12, total subjects N=175): 4.0 | efficacy against anxiety (conclusion from the clinical data): significant efficacy
